Species: Rattus norvegicus
Assay: DrugMatrix - Regimen: Daily Repeat
Type: toxicity, organism-based, Sprague-Dawley
Set-up: regimen Daily Repeat, gender Male, age 6-8 weeks
Details: in vivo, sc, 0 mg/kg, route mini-PUMP - SUBCUTANEOUS, dose level Control, vehicle 100 % SALINE; for ABSOLUTE BASOPHIL / ABSOLUTE EOSINOPHIL / ABSOLUTE LYMPHOCYTE / ABSOLUTE MONOCYTE / ABSOLUTE SEGMENTED NEUTROPHIL / BASOPHIL / EOSINOPHIL / ERYTHROCYTE COUNT / HEMATOCRIT / HEMOGLOBIN / LEUKOCYTE COUNT / LYMPHOCYTE / MEAN CORPUSCULAR HEMOGLOBIN / MEAN CORPUSCULAR HEMOGLOBIN CONCENTRATION / MEAN CORPUSCULAR VOLUME / MONOCYTE / NEUTROPHIL / NUCLEATED RED BLOOD CELLS / PLATELET COUNT: tissue Blood; for ALANINE AMINOTRANSFERASE / ALBUMIN / ALKALINE PHOSPHATASE / ASPARTATE AMINOTRANSFERASE / BLOOD UREA NITROGEN / CARBON DIOXIDE / CHLORIDE / CHOLESTEROL / CREATININE / GLUCOSE / LACTATE DEHYDROGENASE / LIPASE / PHOSPHORUS / POTASSIUM / SODIUM / TOTAL BILIRUBIN / TOTAL PROTEIN / URIC ACID: tissue Plasma

C[C@]12CCC(=O)C=C1CC[C@@H]1[C@@H]2[C@@H](O)C[C@]2(C=O)[C@@H](C(=O)CO)CC[C@@H]12 [ALDOSTERONE]
ABSOLUTE BASOPHIL (72 h, time 3 day): 0 CELLS/uL
ABSOLUTE EOSINOPHIL (72 h, time 3 day): 77.17 CELLS/uL
ABSOLUTE LYMPHOCYTE (72 h, time 3 day): 14293.83 CELLS/uL
ABSOLUTE MONOCYTE (72 h, time 3 day): 354 CELLS/uL
ABSOLUTE SEGMENTED NEUTROPHIL (72 h, time 3 day): 1658.33 CELLS/uL
BASOPHIL (72 h, time 3 day): 0%
EOSINOPHIL (72 h, time 3 day): 0.5%
ERYTHROCYTE COUNT (72 h, time 3 day): 6.27 x10E6/uL
HEMATOCRIT (72 h, time 3 day): 36.95%
HEMOGLOBIN (72 h, time 3 day): 13.4 G/DL
LEUKOCYTE COUNT (72 h, time 3 day): 16.38 x10E3/uL
LYMPHOCYTE (72 h, time 3 day): 87.17%
MEAN CORPUSCULAR HEMOGLOBIN (72 h, time 3 day): 21.42 pg
MEAN CORPUSCULAR HEMOGLOBIN CONCENTRATION (72 h, time 3 day): 36.27 G/DL
MEAN CORPUSCULAR VOLUME (72 h, time 3 day): 59.03 fL
MONOCYTE (72 h, time 3 day): 2%
NEUTROPHIL (72 h, time 3 day): 10.33%
NUCLEATED RED BLOOD CELLS (72 h, time 3 day): 0 /100WBC
PLATELET COUNT (72 h, time 3 day): 904.67 x10E3/uL
ALANINE AMINOTRANSFERASE (72 h, time 3 day): 48.33 u/L
ALBUMIN (72 h, time 3 day): 3.82 G/DL
ALKALINE PHOSPHATASE (72 h, time 3 day): 282.33 u/L
ASPARTATE AMINOTRANSFERASE (72 h, time 3 day): 86.83 u/L
BLOOD UREA NITROGEN (72 h, time 3 day): 20.17 mg/dL
CARBON DIOXIDE (72 h, time 3 day): 34.67 mmol/L
CHLORIDE (72 h, time 3 day): 102 MEQ/L
CHOLESTEROL (72 h, time 3 day): 71.5 mg/dL
CREATININE (72 h, time 3 day): 0.2 mg/dL
GLUCOSE (72 h, time 3 day): 136.83 mg/dL
LACTATE DEHYDROGENASE (72 h, time 3 day): 159 u/L
LIPASE (72 h, time 3 day): 9 u/L
PHOSPHORUS (72 h, time 3 day): 10.12 mg/dL
POTASSIUM (72 h, time 3 day): 5.92 MEQ/L
SODIUM (72 h, time 3 day): 147.8 MEQ/L
TOTAL BILIRUBIN (72 h, time 3 day): 0.2 mg/dL
TOTAL PROTEIN (72 h, time 3 day): 6.05 G/DL
URIC ACID (72 h, time 3 day): 1.4 mg/dL
ABSOLUTE BASOPHIL (120 h, time 5 day): 0 CELLS/uL
ABSOLUTE EOSINOPHIL (120 h, time 5 day): 0 CELLS/uL
ABSOLUTE LYMPHOCYTE (120 h, time 5 day): 14257.33 CELLS/uL
ABSOLUTE MONOCYTE (120 h, time 5 day): 326 CELLS/uL
ABSOLUTE SEGMENTED NEUTROPHIL (120 h, time 5 day): 3216.67 CELLS/uL
BASOPHIL (120 h, time 5 day): 0%
EOSINOPHIL (120 h, time 5 day): 0%
ERYTHROCYTE COUNT (120 h, time 5 day): 6.11 x10E6/uL
HEMATOCRIT (120 h, time 5 day): 36.22%
HEMOGLOBIN (120 h, time 5 day): 13.18 G/DL
LEUKOCYTE COUNT (120 h, time 5 day): 17.8 x10E3/uL
LYMPHOCYTE (120 h, time 5 day): 80.5%
MEAN CORPUSCULAR HEMOGLOBIN (120 h, time 5 day): 21.62 pg
MEAN CORPUSCULAR HEMOGLOBIN CONCENTRATION (120 h, time 5 day): 36.42 G/DL
MEAN CORPUSCULAR VOLUME (120 h, time 5 day): 59.37 fL
MONOCYTE (120 h, time 5 day): 1.83%
NEUTROPHIL (120 h, time 5 day): 17.67%
NUCLEATED RED BLOOD CELLS (120 h, time 5 day): 0 /100WBC
PLATELET COUNT (120 h, time 5 day): 1311 x10E3/uL
ALANINE AMINOTRANSFERASE (120 h, time 5 day): 47 u/L
ALBUMIN (120 h, time 5 day): 3.83 G/DL
ALKALINE PHOSPHATASE (120 h, time 5 day): 260.33 u/L
ASPARTATE AMINOTRANSFERASE (120 h, time 5 day): 76.17 u/L
BLOOD UREA NITROGEN (120 h, time 5 day): 14.67 mg/dL
CARBON DIOXIDE (120 h, time 5 day): 31.33 mmol/L
CHLORIDE (120 h, time 5 day): 101.17 MEQ/L
CHOLESTEROL (120 h, time 5 day): 75 mg/dL
CREATININE (120 h, time 5 day): 0.16 mg/dL
GLUCOSE (120 h, time 5 day): 152.67 mg/dL
LACTATE DEHYDROGENASE (120 h, time 5 day): 147.33 u/L
LIPASE (120 h, time 5 day): 9.33 u/L
PHOSPHORUS (120 h, time 5 day): 10.97 mg/dL
POTASSIUM (120 h, time 5 day): 6 MEQ/L
SODIUM (120 h, time 5 day): 145.52 MEQ/L
TOTAL BILIRUBIN (120 h, time 5 day): 0.17 mg/dL
TOTAL PROTEIN (120 h, time 5 day): 5.83 G/DL
URIC ACID (120 h, time 5 day): 1.27 mg/dL
ABSOLUTE BASOPHIL ([…], time 14 day): 0 CELLS/uL
ABSOLUTE EOSINOPHIL ([…], time 14 day): 64.5 CELLS/uL
ABSOLUTE LYMPHOCYTE ([…], time 14 day): 12507.83 CELLS/uL
ABSOLUTE MONOCYTE ([…], time 14 day): 380.33 CELLS/uL
ABSOLUTE SEGMENTED NEUTROPHIL ([…], time 14 day): 2414 CELLS/uL
BASOPHIL ([…], time 14 day): 0%
EOSINOPHIL ([…], time 14 day): 0.5%
ERYTHROCYTE COUNT ([…], time 14 day): 6.1 x10E6/uL
HEMATOCRIT ([…], time 14 day): 35.4%
HEMOGLOBIN ([…], time 14 day): 12.88 G/DL
LEUKOCYTE COUNT ([…], time 14 day): 15.37 x10E3/uL
LYMPHOCYTE ([…], time 14 day): 80.83%
MEAN CORPUSCULAR HEMOGLOBIN ([…], time 14 day): 21.18 pg
MEAN CORPUSCULAR HEMOGLOBIN CONCENTRATION ([…], time 14 day): 36.43 G/DL
MEAN CORPUSCULAR VOLUME ([…], time 14 day): 58.17 fL
MONOCYTE ([…], time 14 day): 2.17%
NEUTROPHIL ([…], time 14 day): 16.5%
NUCLEATED RED BLOOD CELLS ([…], time 14 day): 0.17 /100WBC
PLATELET COUNT ([…], time 14 day): 1016 x10E3/uL
ALANINE AMINOTRANSFERASE ([…], time 14 day): 53.33 u/L
ALBUMIN ([…], time 14 day): 3.93 G/DL
ALKALINE PHOSPHATASE ([…], time 14 day): 319.83 u/L
ASPARTATE AMINOTRANSFERASE ([…], time 14 day): 84 u/L
BLOOD UREA NITROGEN ([…], time 14 day): 15.5 mg/dL
CARBON DIOXIDE ([…], time 14 day): 34 mmol/L
CHLORIDE ([…], time 14 day): 101.83 MEQ/L
CHOLESTEROL ([…], time 14 day): 57 mg/dL
CREATININE ([…], time 14 day): 0.21 mg/dL
GLUCOSE ([…], time 14 day): 182.33 mg/dL
LACTATE DEHYDROGENASE ([…], time 14 day): 104.67 u/L
LIPASE ([…], time 14 day): 9.17 u/L
PHOSPHORUS ([…], time 14 day): 11.12 mg/dL
POTASSIUM ([…], time 14 day): 5.81 MEQ/L
SODIUM ([…], time 14 day): 144.85 MEQ/L
TOTAL BILIRUBIN ([…], time 14 day): 0.18 mg/dL
TOTAL PROTEIN ([…], time 14 day): 5.92 G/DL
URIC ACID ([…], time 14 day): 1.38 mg/dL

From ChEMBL document CHEMBL3885881, “DrugMatrix”
